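The compound was tested at five concentrations on cells cultured in 96-well plates, with a 48-hour exposure period. GI50 marks 50% less growth. At the TGI there is no net growth.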
tested on: HCT-15 colon; experiment: NCI tumour cell line growth inhibition, 48 h

Structure (SMILES)	GI50 [nM]	TGI [µM]
O=C(Nc1ccncc1)C(=O)c1cn(Cc2ccc(Cl)cc2)c2ccccc12	40.8	> 100
CC(=O)C(=Cc1ccc(C=C(C(C)=O)C(C)=O)cc1)C(C)=O	–	3.44
COC(=O)c1ccccc1OCc1cc(=O)oc2ccc(C)cc12	–	> 100
COc1ccc(-c2nc(-c3ccccc3)c(-c3ccccc3)[nH]2)cc1OC1CCCC1	13200	> 100
O=C(O)c1cc2ccc3ccccc3c2oc1=O	–	> 100
O=[N+]([O-])c1ccc2c(c1)Cc1cc(N=Cc3ccc4c(c3)OCO4)ccc1-2	–	> 100
COC(=O)[C@@]12OC[C@]34[C@H]([C@@H](O)[C@@H]1O)[C@@]1(C)[C@H](O)C(=O)C=C(C)[C@@H]1C[C@H]3OC(=O)C(OC(C)=O)[C@@H]24 (stereo not given in full)	101	0.458

tested on: HL-60(TB) leukemia; experiment: NCI tumour cell line growth inhibition, 48 h

Structure (SMILES)	GI50 [µM]	TGI [µM]
C=CCC1(O)c2ccccc2C(=O)c2c(NCCN(CC(=O)OCC)CC(=O)OCC)cccc21 (stereo not given)	71.9	> 100
COc1cccc(-n2nc(C)c3c(N/N=C(\C)c4ccncc4)ncnc32)c1	> 25	> 25
Cc1ccc(-c2nc(C#N)c(S(=O)(=O)n3nc(C)cc3N)o2)cc1	2	5.42
CCn1cnc(C[C@H](NC(=O)[C@@H](NC(=O)Nc2cc(C(F)(F)F)cc(C(F)(F)F)c2)C(C)C)C(=O)OC)c1	6.18	> 10
O=C(Nc1cccc(-n2cc(-c3ccncc3)c(-c3ccc(Cl)c(O)c3)n2)c1)c1ccc(N2CCOCC2)c(C(F)(F)F)c1	3.81	> 50
O=C(Nc1ccncc1)C(=O)c1cn(Cc2ccc(Cl)cc2)c2ccccc12	0.0327	0.237
CC(=O)C(=Cc1ccc(C=C(C(C)=O)C(C)=O)cc1)C(C)=O	–	4.52
COC(=O)c1ccccc1OCc1cc(=O)oc2ccc(C)cc12	–	> 100
COc1ccc(-c2nc(-c3ccccc3)c(-c3ccccc3)[nH]2)cc1OC1CCCC1	> 100	> 100
O=C(O)c1cc2ccc3ccccc3c2oc1=O	–	> 100
O=[N+]([O-])c1ccc2c(c1)Cc1cc(N=Cc3ccc4c(c3)OCO4)ccc1-2	–	> 100
COC(=O)[C@@]12OC[C@]34[C@H]([C@@H](O)[C@@H]1O)[C@@]1(C)[C@H](O)C(=O)C=C(C)[C@@H]1C[C@H]3OC(=O)C(OC(C)=O)[C@@H]24 (stereo not given in full)	0.0119	0.0315

tested on: KM12 colon; experiment: NCI tumour cell line growth inhibition, 48 h

Structure (SMILES)	GI50 [nM]	TGI [µM]
C=CCC1(O)c2ccccc2C(=O)c2c(NCCN(CC(=O)OCC)CC(=O)OCC)cccc21 (stereo not given)	> 100000	> 100
COc1cccc(-n2nc(C)c3c(N/N=C(\C)c4ccncc4)ncnc32)c1	> 25000	> 25
Cc1ccc(-c2nc(C#N)c(S(=O)(=O)n3nc(C)cc3N)o2)cc1	16500	33.8
CCn1cnc(C[C@H](NC(=O)[C@@H](NC(=O)Nc2cc(C(F)(F)F)cc(C(F)(F)F)c2)C(C)C)C(=O)OC)c1	1890	3.9
O=C(Nc1cccc(-n2cc(-c3ccncc3)c(-c3ccc(Cl)c(O)c3)n2)c1)c1ccc(N2CCOCC2)c(C(F)(F)F)c1	1940	> 50
O=C(Nc1ccncc1)C(=O)c1cn(Cc2ccc(Cl)cc2)c2ccccc12	38.4	> 100
CC(=O)C(=Cc1ccc(C=C(C(C)=O)C(C)=O)cc1)C(C)=O	–	6.18
COC(=O)c1ccccc1OCc1cc(=O)oc2ccc(C)cc12	–	> 100
COc1ccc(-c2nc(-c3ccccc3)c(-c3ccccc3)[nH]2)cc1OC1CCCC1	40900	> 100
O=C(O)c1cc2ccc3ccccc3c2oc1=O	–	> 100
O=[N+]([O-])c1ccc2c(c1)Cc1cc(N=Cc3ccc4c(c3)OCO4)ccc1-2	–	> 100
COC(=O)[C@@]12OC[C@]34[C@H]([C@@H](O)[C@@H]1O)[C@@]1(C)[C@H](O)C(=O)C=C(C)[C@@H]1C[C@H]3OC(=O)C(OC(C)=O)[C@@H]24 (stereo not given in full)	30	0.136

— PubChem BioAssay (NCI)
